According to ChEMBL document CHEMBL2074382, “Improvement of L-dopa absorption by dipeptidyl derivation, utilizing peptide transporter PepT1” (J Pharm Sci, 1998):
Non-standard residues stand in square brackets, D forms with d. Residues, ends and D or L forms follow the SMILES beside them. Dopa = N[C@@H](Cc1ccc(O)c(O)c1)C(=O)O

Key:
[1] = molecular target: T1, Solute carrier family 15 member 1 (Homo sapiens) (UniProt P46059); experiment: TP_TRANSPORTER: inhibition of Gly-Sar uptake (Gly-Sar: 20 uM, L-dopa-L-Phe: 1000 uM) in Caco-2 cells; assay type: functional, cell-based
T1 sequence (whole entry): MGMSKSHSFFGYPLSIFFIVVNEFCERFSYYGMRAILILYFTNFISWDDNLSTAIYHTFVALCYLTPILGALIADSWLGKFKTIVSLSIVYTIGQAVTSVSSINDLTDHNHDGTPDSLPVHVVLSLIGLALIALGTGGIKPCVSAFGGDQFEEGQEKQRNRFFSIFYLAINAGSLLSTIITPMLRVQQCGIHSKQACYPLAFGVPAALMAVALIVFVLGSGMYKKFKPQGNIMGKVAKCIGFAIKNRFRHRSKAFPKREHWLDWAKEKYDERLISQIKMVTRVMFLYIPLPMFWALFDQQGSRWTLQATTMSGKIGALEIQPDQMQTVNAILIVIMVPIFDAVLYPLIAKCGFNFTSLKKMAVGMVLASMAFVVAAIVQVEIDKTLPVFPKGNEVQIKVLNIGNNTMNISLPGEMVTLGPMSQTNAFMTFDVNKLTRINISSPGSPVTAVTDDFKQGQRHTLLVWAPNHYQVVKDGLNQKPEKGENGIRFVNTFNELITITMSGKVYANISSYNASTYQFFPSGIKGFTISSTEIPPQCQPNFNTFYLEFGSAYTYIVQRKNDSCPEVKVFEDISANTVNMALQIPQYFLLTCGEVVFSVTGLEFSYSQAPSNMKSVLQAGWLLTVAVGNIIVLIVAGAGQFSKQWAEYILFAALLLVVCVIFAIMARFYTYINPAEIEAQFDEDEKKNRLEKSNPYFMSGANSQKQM

[2] = molecular target: T1, Solute carrier family 15 member 1 (Homo sapiens); experiment: TP_TRANSPORTER: uptake in Xenopus laevis oocytes; assay type: functional, cell-based; conditions: Oocyte

Row | Compound | Activity [1] | Activity [2]
1 | N[C@@H](Cc1ccc(O)c(O)c1)C(=O)N[C@@H](Cc1ccccc1)C(=O)O (H-[Dopa]-Phe-OH) | inhibitor [20% (at a rough estimate) of control] | substrate [+]
2 | N[C@@H](Cc1ccccc1)C(=O)N1CCC[C@@H]1C(=O)O |  | substrate [+]
3 | N[C@@H](Cc1ccccc1)C(=O)N1CCC[C@H]1C(=O)O |  | substrate [+]
4 | NC(=O)[C@H](Cc1ccccc1)NC(=O)[C@@H](N)Cc1ccccc1 (H-Phe-Phe-NH2) |  | substrate [+]
